Results taken from patent US8933195B2, “Histone deacetylase inhibitors and synthetic method thereof and use thereof in manufacture of medicaments” (Nanjing Yoko Biomedical R & D Ltd., priority 2011, dated 2015).

Columns and labels:
HDAC7 = molecular target: T1, HDAC7 (Homo sapiens, UniProt Q8WUI4); test: Measurement of biochemical activities of HDAC (fluorescently-labeled acetylated lysine substrate)
T1 sequence (Q8WUI4 1-952): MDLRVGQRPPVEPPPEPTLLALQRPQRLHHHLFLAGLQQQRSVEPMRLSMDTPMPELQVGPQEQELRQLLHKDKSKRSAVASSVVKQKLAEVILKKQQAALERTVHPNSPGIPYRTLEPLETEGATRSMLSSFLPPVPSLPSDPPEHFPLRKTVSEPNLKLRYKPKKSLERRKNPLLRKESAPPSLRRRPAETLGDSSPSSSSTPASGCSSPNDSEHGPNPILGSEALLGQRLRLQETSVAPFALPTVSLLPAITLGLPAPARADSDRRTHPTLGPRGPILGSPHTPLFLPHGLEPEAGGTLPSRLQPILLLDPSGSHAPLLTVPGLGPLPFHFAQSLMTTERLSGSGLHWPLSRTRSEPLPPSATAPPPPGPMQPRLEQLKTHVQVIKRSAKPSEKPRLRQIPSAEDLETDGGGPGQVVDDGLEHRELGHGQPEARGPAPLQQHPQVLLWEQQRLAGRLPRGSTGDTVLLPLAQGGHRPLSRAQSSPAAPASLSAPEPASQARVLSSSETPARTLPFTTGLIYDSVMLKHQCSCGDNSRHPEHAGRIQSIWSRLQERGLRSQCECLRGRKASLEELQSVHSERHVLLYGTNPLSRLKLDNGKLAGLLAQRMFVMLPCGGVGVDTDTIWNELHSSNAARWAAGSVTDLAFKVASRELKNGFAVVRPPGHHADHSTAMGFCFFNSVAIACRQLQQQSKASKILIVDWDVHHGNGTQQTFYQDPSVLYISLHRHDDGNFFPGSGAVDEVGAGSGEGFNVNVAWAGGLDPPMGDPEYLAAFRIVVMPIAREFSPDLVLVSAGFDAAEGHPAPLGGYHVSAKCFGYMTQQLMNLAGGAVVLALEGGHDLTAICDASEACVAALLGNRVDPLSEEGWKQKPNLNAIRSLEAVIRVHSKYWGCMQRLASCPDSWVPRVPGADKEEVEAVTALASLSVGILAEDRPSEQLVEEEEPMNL
In short: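 For both HDAC isoforms, fluorescent acetyl-lysine substrate ([…] in reaction) incubated with enzyme and compounds for 30 min at 37; developer then added for 15 min at room temperature. Fluorescence read at excitation 360 nm, emission 460 nm.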

[1] = test system: human colon cancer HCT-116; test: Subcutaneously transplanted tumors in nude mice; format: in vivo, BALB/cA nude mice; design: key to RTV (mean ± SD): RTV = Vt/V0, tumor volume at time t over volume at d0; settings: for RTV (mean ± SD) / TV (mean ± SD) d21: d21
Procedure: The solvents are isopropanol and anhydrous ethanol (mixed in the volume ratio of 1:1). The test sample is dissolved with solvents and physiological saline in the ratio of 1:1 for use, and the above solvents and physiological saline are dissolved in the ratio of 1:1 as a negative control.
The number of mice in each group: 12 mice in the negative control group, and 6 mice in the administration group.
The cell strains are inoculated to the right axilla subcutaneous layer of the nude mice, with 5×10^6 per mouse. After formed, the transplanted tumors are passed down two generations in the nude mice and then used.
Tumor tissues in the vigorous growth period are cut into about 1.5 mm^3, and inoculated to the right axilla subcutaneous layer of the nude mice under aseptic conditions. For the subcutaneously transplanted tumors of the nude mice, the diameter of the transplanted tumors is measured by a vernier caliper. The mice are randomly grouped after the tumors grow to 100-200 mm^3. […] The diameter of the transplanted tumors is measured twice per week in the whole experimental process, and meanwhile the weight of the mice is weighed. The calculation formula of tumor volume (TV) is TV=½×a×b^2, where a and b represent length and width, respectively.
The relative tumor volume (RTV) is calculated according to the measured results, with the following calculation formula: RTV=Vt/V0, where V0 is the tumor volume obtained by measurement during administration in different cages (i.e., d0), Vt is the tumor volume obtained by measurement at each time. […] (Wc−WT)Wc×100%, where Wc is the tumor weight of the control group, and WT is the tumor weight of the treatment group.

[2] = Table 2.1, 20 mg/kg q3d × 3w iv

With `O=C(CCCCCCC(=O)Nc1ccccc1)NO` [SAHA, suberoylanilide hydroxamic acid, reference compound] the “IC50 HDAC7” value (HDAC7) was “no activity”, the “TV (mean ± SD) d0” value ([1]; Table 1.1, 50 mg/kg qd × 3w iv) was 116 ± 27 mm^3 and the “Weight d0” value ([1]; Table 1.1, 50 mg/kg qd × 3w iv) was 16.6 g. For the same compound, the “RTV (mean ± SD)” value ([1]; Table 1.1, 50 mg/kg qd × 3w iv) was 4.87 ± 1.68, the “TV (mean ± SD) d21” value ([1]; Table 1.1, 50 mg/kg qd × 3w iv) was 566 ± 221 mm^3 and the “Tumor Volume TV (mean ± SD) d 0” value ([1]; Table 1.2, 50 mg/kg) was 116 ± 27 mm^3. For the same compound, the “Tumor Volume TV (mean ± SD) d 3” value ([1]; Table 1.2, 50 mg/kg) was 146 ± 38 mm^3, the “Tumor Volume TV (mean ± SD) d 7” value ([1]; Table 1.2, 50 mg/kg) was 191 ± 25 mm^3 and the “Tumor Volume TV (mean ± SD) d 10” value ([1]; Table 1.2, 50 mg/kg) was 283 ± 41 mm^3. For the same compound, the “Tumor Volume TV (mean ± SD) d 14” value ([1]; Table 1.2, 50 mg/kg) was 326 ± 45 mm^3, the “Tumor Volume TV (mean ± SD) d 17” value ([1]; Table 1.2, 50 mg/kg) was 417 ± 140 mm^3 and the “Weight (mean ± SD) d 0” value ([1]; Table 1.3, 50 mg/kg) was 16.6 ± 1.5 g. The “Weight (mean ± SD) d 3” value ([1]; Table 1.3, 50 mg/kg) was 15.9 ± 1.5 g, the “Weight (mean ± SD) d 7” value ([1]; Table 1.3, 50 mg/kg) was 14.9 ± 1.8 g and the “Weight (mean ± SD) d 10” value ([1]; Table 1.3, 50 mg/kg) was 14.6 ± 1.4 g. For the same compound, the “Weight (mean ± SD) d 14” value ([1]; Table 1.3, 50 mg/kg) was 14.1 ± 1.3 g, the “Weight (mean ± SD) d 17” value ([1]; Table 1.3, 50 mg/kg) was 13.6 ± 1.3 g and the “Weight (mean ± SD) d 21” value ([1]; Table 1.3, 50 mg/kg) was 13.3 ± 1.1 g. For the same compound, the “TV (mean ± SD) d0” value ([1]; Table 2.1, 50 mg/kg qd × 3w iv) was 118 ± 25 mm^3, the “Weight d0” value ([1]; Table 2.1, 50 mg/kg qd × 3w iv) was 16.9 g and the “RTV (mean ± SD)” value ([1]; Table 2.1, 50 mg/kg qd × 3w iv) was 4.54 ± 1.72. The “TV (mean ± SD) d21” value ([1]; Table 2.1, 50 mg/kg qd × 3w iv) was 536 ± 203 mm^3, the “Tumor Volume TV (mean ± SD) d 0” value ([1]; Table 2.2, 50 mg/kg) was 120 ± 25 mm^3 and the “Tumor Volume TV (mean ± SD) d 3” value ([1]; Table 2.2, 50 mg/kg) was 146 ± 36 mm^3. The “Tumor Volume TV (mean ± SD) d 7” value ([1]; Table 2.2, 50 mg/kg) was 189 ± 20 mm^3, the “Tumor Volume TV (mean ± SD) d 10” value ([1]; Table 2.2, 50 mg/kg) was 263 ± 33 mm^3 and the “Tumor Volume TV (mean ± SD) d 14” value ([1]; Table 2.2, 50 mg/kg) was 300 ± 35 mm^3. The “Tumor Volume TV (mean ± SD) d 17” value ([1]; Table 2.2, 50 mg/kg) was 402 ± 146 mm^3, the “Weight (mean ± SD) d 0” value ([1]; Table 2.3, 50 mg/kg) was 16.8 ± 1.0 g and the “Weight (mean ± SD) d 3” value ([1]; Table 2.3, 50 mg/kg) was 15.7 ± 1.2 g. For the same compound, the “Weight (mean ± SD) d 7” value ([1]; Table 2.3, 50 mg/kg) was 14.9 ± 1.6 g, the “Weight (mean ± SD) d 10” value ([1]; Table 2.3, 50 mg/kg) was 14.6 ± 1.5 g and the “Weight (mean ± SD) d 14” value ([1]; Table 2.3, 50 mg/kg) was 14.2 ± 1.4 g. For the same compound, the “Weight (mean ± SD) d 17” value ([1]; Table 2.3, 50 mg/kg) was 13.8 ± 1.3 g and the “Weight (mean ± SD) d 21” value ([1]; Table 2.3, 50 mg/kg) was 13.4 ± 1.1 g.

With `C/C=C1\NC(=O)c2csc(n2)CNC(=O)C[C@@H](/C=C/CCSC(=O)CCCCCCC)OC(=O)[C@H](C(C)(C)C)NC1=O` [Compound 1-6] the “IC50 HDAC7” value (HDAC7) was “no activity”, the “1-T/C tumor inhibition rate” value ([1]; Table 2.1, 20 mg/kg q3d × 3w iv, after three weeks) was 74.09% and the “TV (mean ± SD) d0” value [1, 2] was 121 ± 28 mm^3. The “Weight d0” value [1, 2] was 16.9 g, the “RTV (mean ± SD)” value [1, 2] was 2.69 ± 1.82 and the “TV (mean ± SD) d21” value [1, 2] was 326 ± 221 mm^3. The “Tumor Volume TV (mean ± SD) d 0” value ([1]; Table 2.2, 20 mg/kg) was 120 ± 28 mm^3, the “Tumor Volume TV (mean ± SD) d 3” value ([1]; Table 2.2, 20 mg/kg) was 129 ± 15 mm^3 and the “Tumor Volume TV (mean ± SD) d 7” value ([1]; Table 2.2, 20 mg/kg) was 156 ± 23 mm^3. For the same compound, the “Tumor Volume TV (mean ± SD) d 10” value ([1]; Table 2.2, 20 mg/kg) was 195 ± 58 mm^3, the “Tumor Volume TV (mean ± SD) d 14” value ([1]; Table 2.2, 20 mg/kg) was 249 ± 110 mm^3 and the “Tumor Volume TV (mean ± SD) d 17” value ([1]; Table 2.2, 20 mg/kg) was 265 ± 122 mm^3. The “Weight (mean ± SD) d 0” value ([1]; Table 2.3, 20 mg/kg) was 16.9 ± 1.0 g, the “Weight (mean ± SD) d 3” value ([1]; Table 2.3, 20 mg/kg) was 16.6 ± 1.8 g and the “Weight (mean ± SD) d 7” value ([1]; Table 2.3, 20 mg/kg) was 15.9 ± 1.6 g. The “Weight (mean ± SD) d 10” value ([1]; Table 2.3, 20 mg/kg) was 15.5 ± 1.6 g, the “Weight (mean ± SD) d 14” value ([1]; Table 2.3, 20 mg/kg) was 14.8 ± 1.8 g and the “Weight (mean ± SD) d 17” value ([1]; Table 2.3, 20 mg/kg) was 14.2 ± 1.7 g. For the same compound, the “Weight (mean ± SD) d 21” value ([1]; Table 2.3, 20 mg/kg) was 13.1 ± 1.6 g.
